Experiment [1] concerns the target CutC (Oleidesulfovibrio alaskensis, UniProt Q30W70). Nature of the experiment: biochemical. The experiment is classed as biochemical.
In experiment [2] the test system is E. coli MS69-1. Briefly: Choline TMA-lyase activity (TMA generation) in cut gene cluster-harboring bacteria. The experiment is classed as cell-based, Escherichia coli. The conditions noted are these: 1 mM choline-d9, 3.5 hours, 37° C., read-out: EC50 against E. coli MS69-1.
The test system of experiment [3] is P. mirabilis ATCC 29906. The description is as above. The conditions noted are these: 1 mM choline-d9, 3.5 hours, 37° C., read-out: EC50 against P. mirabilis ATCC 29906. The experiment is classed as cell-based, Proteus mirabilis.
Experiment [4] relates to Klebsiella sp. MS92-3. Described as above. The class given is cell-based. The conditions noted are these: 1 mM choline-d9, 3.5 hours, 37° C., read-out: EC50 against Klebsiella sp. MS92-3.
Experiment [5] concerns fecal sample. Nature of the experiment: Choline TMA-lyase activity in a fecal suspension ex vivo. The class given is cell-based. Conditions: TMA generation, fecal sample 1:10 in Mega media, 1 mM choline-d9, 18 h, 37° C.; read-out: EC50 against fecal sample.
Experiment [6] concerns E. coli MS 200-1. Briefly: Inhibition of TMA production in whole cells (LC-MS/MS assay for choline TMA-lyase activity, d9-TMA from d9-choline). The class given is cell-based. The conditions noted are these: Escherichia coli, MS2001; Table 3; TMA generation, 1 mM choline-d9, anaerobic, 3.5 h, 37° C.; read-out: EC50 against E. coli MS200-1.

Read-outs that look alike come from different tables or passages of the source.

CutC, sequence (Q30W70 whole entry): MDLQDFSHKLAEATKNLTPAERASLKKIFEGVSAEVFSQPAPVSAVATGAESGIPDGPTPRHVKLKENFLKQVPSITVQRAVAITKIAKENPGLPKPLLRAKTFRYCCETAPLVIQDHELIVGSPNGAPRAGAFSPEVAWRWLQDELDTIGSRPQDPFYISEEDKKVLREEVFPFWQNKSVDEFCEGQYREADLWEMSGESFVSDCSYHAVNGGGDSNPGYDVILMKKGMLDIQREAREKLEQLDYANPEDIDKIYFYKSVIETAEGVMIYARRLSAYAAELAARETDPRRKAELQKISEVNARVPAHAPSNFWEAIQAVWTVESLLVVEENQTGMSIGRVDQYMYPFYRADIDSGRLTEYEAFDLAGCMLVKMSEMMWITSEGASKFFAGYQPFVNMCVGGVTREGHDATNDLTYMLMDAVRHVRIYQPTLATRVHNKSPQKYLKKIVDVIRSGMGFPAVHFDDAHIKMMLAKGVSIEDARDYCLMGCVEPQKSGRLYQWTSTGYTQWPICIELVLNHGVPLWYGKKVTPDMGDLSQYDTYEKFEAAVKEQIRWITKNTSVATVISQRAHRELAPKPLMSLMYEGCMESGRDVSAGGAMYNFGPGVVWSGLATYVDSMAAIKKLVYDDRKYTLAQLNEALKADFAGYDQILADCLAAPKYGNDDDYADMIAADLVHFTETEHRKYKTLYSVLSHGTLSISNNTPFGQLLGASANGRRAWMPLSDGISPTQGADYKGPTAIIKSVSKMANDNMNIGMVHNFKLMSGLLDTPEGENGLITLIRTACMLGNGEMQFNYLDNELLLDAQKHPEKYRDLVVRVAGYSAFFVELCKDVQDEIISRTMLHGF

In general, IC50 refers to the concentration needed to halve the response being measured. On to `OC1C=CCN(C2CCC2)C1` (centres unmarked) [drawing 192], for which, in experiment [1], the IC50 was 203 µM.
In the case of `CCCN1CC=CC(O)C1` (centres unmarked) [drawing 187], the IC50 in experiment [1] (read-out: IC50 CutC) was found to be 141 µM.
The same measure, in the same setting: to `OC1C=CCOC1` (centres unmarked) [drawing 199] belongs 2890 µM.
For the compound `OC1C=CCN(C2CCCCCC2)C1` (centres unmarked) [drawing 197], the midpoint of inhibition in experiment [1], the IC50, lay at 14 µM.
On to `CN1CCC(O)C1` (centres unmarked) [drawing 176], for which the IC50 in experiment [1] (read-out: IC50 CutC) turned out to be 844 µM.
Broadly, the EC50 is the concentration at which the effect is half-maximal. With `CN1CC=CC(O)C1` (centres unmarked) [drawing 203], the EC50 in experiment [2] amounted to 27 µM; in experiment [3] it was 97 µM; in experiment [4], 5 µM; in experiment [5], 78 µM.
As to `OC1C=CCN(CC2CC2)C1` (centres unmarked) [drawing 188], in experiment [1], inhibition was half-maximal at 76 µM (IC50).
Still for that read-out and setting: to `CC(C)N1CC=CC(O)C1` (centres unmarked) [drawing 191] belongs 110 µM.
Consider `CN1CCCC(O)CC1` (centres unmarked) [drawing 180], for which, in experiment [1] (read-out: IC50 CutC), the IC50 was determined as 2600 µM.
Still for that read-out and setting: to `C[N+]1(C)CC=CC(O)C1` (centres unmarked) [drawing 185] belongs 7 µM.
In the case of `OC1C=CCN(C2CCCCC2)C1` (centres unmarked) [drawing 196], in experiment [1], the IC50 came to 63 µM.
Still for that read-out and setting: to `CN1CCCC1CO` (centres unmarked) [drawing 200] belongs 513 µM.
Regarding `CN1CC=C[C@H](O)C1` [drawing 204], the EC50 was found to be 22 µM in experiment [2], 92 µM in experiment [3], 4 µM in experiment [4] and 60 µM in experiment [5].
As for `OC1C=CCN(CC2CCCCC2)C1` (centres unmarked) [drawing 189], in experiment [1], the IC50 came out at 24 µM.
As for `C=CC(O)CN(C)C` (centres unmarked) [drawing 201], it took 23 µM to reach half-maximal inhibition in experiment [1] (IC50).
For `CC1CCCC1N1CC=C[C@@H](O)C1` (some centres unmarked) [drawing 195], in experiment [1], the “inhibition at 10 μM” value is listed as “No inhibition at 10 μM”.
On the same count and under the same terms, to `CC1CCCC1N1CC=CC(O)C1` (centres unmarked) [drawing 193] belongs “No inhibition at 10 μM”.
As to `OC1C=CCN(Cc2ccccc2)C1` (centres unmarked) [drawing 190], the IC50 in experiment [1] (read-out: IC50 CutC) stood at 100 µM.
The same measure, in the same setting: to `CC1=CC(O)CN(C)C1` (centres unmarked) [drawing 186] belongs 422 µM.
As to `CC1CCCC1N1CC=C[C@H](O)C1` (some centres unmarked) [drawing 194], the “inhibition at 10 μM” value in experiment [1] is reported as “No inhibition at 10 μM”.
Regarding `CN1CCC(O)CC1` [drawing 179], in experiment [1] (read-out: IC50 CutC), the IC50 amounted to 7010 µM.
On the same count and under the same terms, to `OC1C=CCCC1` (centres unmarked) [drawing 198] belongs 709 µM.
In the case of `CN1CC=C[C@@H](O)C1` [drawing 205], the EC50 in experiment [2] was 64 µM; in experiment [3], 366 µM; in experiment [4], 17 µM.
Consider `OC1C=CCN(C2CCSC2)C1` (centres unmarked), for which, in experiment [6], the EC50 amounted to 173 µM.

The values are drawn from patent US20220380309A1, “CHOLINE METABOLISM INHIBITORS” (President and Fellows of Harvard College, priority 2018, published 2022).
